Reference: US9440982B2 (Eolas Therapeutics, Inc., priority 2012, dated 2016)

Each molecule was assayed against T1, CYP3A4 (Homo sapiens, UniProt P08684) (assay: Cytochrome P450 inhibition assay (midazolam hydroxylation)). Details: human, human liver microsomes, probe midazolam (hydroxylation to 1′-hydroxymidazolam), 10 μM test compound, midazolam at approximately its Km.
T1 construct: pre-incubated with human liver microsomes and NADPH; from tissue; host or cells: human liver microsomes
Type: in vitro ADME
Description: Compounds were tested for the potential to induce drug-drug interactions by inhibition of the cytochrome P450 3A4 isoform. The assay evaluated the metabolism of a specific marker substrate (CYP3A4, midazolam hydroxylation to 1′-hydroxymidazolam) in the presence or absence of 10 μM test compound. The concentration of the marker substrate was approximately its Km (Dixit et al., Biopharm. Drug Dispos. 2007, 28(5), 257-262). A specific inhibitor for the isoform was included in each run to validate the system. An appropriate positive control inhibitor was used. Mechanism-based inhibition was investigated where warranted using a classical method. To evaluate time-dependent inhibition, parallel samples may have been included where […] was pre-incubated with human liver microsomes and NADPH for 30 min prior to the addition of the P450 substrate. The percent inhibition of the pre-incubated and non-pre-incubated samples were compared as a preliminary evaluation of time-dependent inhibition.

T1 sequence (P08684 whole entry): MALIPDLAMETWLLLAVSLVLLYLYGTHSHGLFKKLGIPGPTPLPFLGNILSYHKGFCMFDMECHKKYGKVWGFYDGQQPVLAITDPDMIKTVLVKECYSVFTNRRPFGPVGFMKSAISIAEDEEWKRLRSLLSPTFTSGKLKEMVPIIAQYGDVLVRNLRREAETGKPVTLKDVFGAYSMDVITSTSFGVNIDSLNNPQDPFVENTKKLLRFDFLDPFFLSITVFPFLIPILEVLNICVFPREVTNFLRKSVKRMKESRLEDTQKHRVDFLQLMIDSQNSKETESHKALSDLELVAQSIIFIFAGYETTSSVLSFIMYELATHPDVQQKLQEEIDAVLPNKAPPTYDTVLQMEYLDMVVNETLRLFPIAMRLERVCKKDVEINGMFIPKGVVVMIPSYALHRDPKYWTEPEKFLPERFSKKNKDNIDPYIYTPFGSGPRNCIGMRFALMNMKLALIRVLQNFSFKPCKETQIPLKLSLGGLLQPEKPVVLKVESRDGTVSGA

inhibition at 10 µM | SMILES
50% | Cc1ccc(NC[C@@H]2[C@H](C)CCCN2C(=O)c2nc(C)ccc2-n2nccn2)nc1 [Example A196, ((2S,3R)-3-Methyl-2-(((5-methylpyridin-2-yl)amino)methyl)piperidin-1-yl)(6-methyl-3-(2H-1,2,3-triazol-2-yl)pyridin-2-yl)methanone]
96% | Cc1ccc(-c2cnn(C)c2)c(C(=O)N2CCC[C@@H](C)[C@H]2CNc2ccc(Cl)cn2)c1 [Example A105, ((2S,3R)-2-(((5-Chloropyridin-2-yl)amino)methyl)-3-methylpiperidin-1-yl)(5-methyl-2-(1-methyl-1H-pyrazol-4-yl)phenyl)methanone]
91% | Cc1ccc(-n2nccn2)c(C(=O)N2CCC[C@@H](C)[C@H]2CNc2ccc(C3CC3)cn2)c1 [Example A136, ((2S,3R)-2-(((5-Cyclopropylpyridin-2-yl)amino)methyl)-3-methylpiperidin-1-yl)(5-methyl-2-(2H-1,2,3-triazol-2-yl)phenyl)methanone]
62% | C[C@@H]1CCCN(C(=O)c2c(F)cccc2-c2ncccn2)[C@@H]1CNc1ccc(C(F)(F)F)cn1 [Example A241, (2-Fluoro-6-(pyrimidin-2-yl)phenyl)((2S,3R)-3-methyl-2-(((5-(trifluoromethyl)pyridin-2-yl)amino)methyl)piperidin-1-yl)methanone]
49% | Cc1ccc(-c2ncccn2)c(C(=O)N2CCC[C@@H](C)[C@H]2CNc2ccc(C(F)(F)F)cn2)n1 [Example A183, ((2S,3R)-3-Methyl-2-(((5-(trifluoromethyl)pyridin-2-yl)amino)methyl)piperidin-1-yl)(6-methyl-3-(pyrimidin-2-yl)pyridin-2-yl)methanone]
92% | Cc1ccc(-c2ccccn2)c(C(=O)N2CCC[C@@H](C)[C@H]2CNc2nc3cc(Cl)ccc3o2)c1 [Example A32, ((2S,3R)-2-(((5-Chlorobenzo[d]oxazol-2-yl)amino)methyl)-3-methylpiperidin-1-yl)(5-methyl-2-(pyridin-2-yl)phenyl)methanone]
95% | Cc1ccc(-c2cnn(C)c2)c(C(=O)N2CCC[C@@H](C)[C@H]2CNc2cccc(C#N)n2)c1 [Example A86, 6-((((2S,3R)-3-Methyl-1-(5-methyl-2-(1-methyl-1H-pyrazol-4-yl)benzoyl)piperidin-2-yl)methyl)amino)picolinonitrile]
72% | Cc1ccc(C#N)c(C(=O)N2CCC[C@@H](C)[C@H]2CNc2ccc(C(F)(F)F)cn2)c1 [Example A22, 4-Methyl-2-((2S,3R)-3-methyl-2-(((5-(trifluoromethyl)pyridin-2-yl)amino)methyl)piperidine-1-carbonyl)benzonitrile]
92% | Cc1ccc(-n2nccn2)c(C(=O)N2CCC[C@@H](C)[C@H]2CNc2cccc(C(F)(F)F)n2)c1 [Example A89, ((2S,3R)-3-Methyl-2-(((6-(trifluoromethyl)pyridin-2-yl)amino)methyl)piperidin-1-yl)(5-methyl-2-(2H-1,2,3-triazol-2-yl)phenyl)methanone]
74% | Cc1ccc(-c2cnn(C)c2)c(C(=O)N2CCC[C@@H](C)[C@H]2CNc2ccc(C(F)(F)F)cn2)n1 [Example A74, ((2S,3R)-3-Methyl-2-(((5-(trifluoromethyl)pyridin-2-yl)amino)methyl)piperidin-1-yl)(6-methyl-3-(1-methyl-H-pyrazol-4-yl)pyridin-2-yl)methanone]
98% | Cc1ccc(-c2cccnc2)c(C(=O)N2CCC[C@@H](C)[C@H]2CNc2nc3cc(Cl)ccc3o2)c1 [Example A31, ((2S,3R)-2-(((5-Chlorobenzo[d]oxazol-2-yl)amino)methyl)-3-methylpiperidin-1-yl)(5-methyl-2-(pyridin-3-yl)phenyl)methanone]
67% | Cc1ccc(-n2nccn2)c(C(=O)N2CCC[C@@H](C)[C@H]2CNc2cccc(C#N)n2)c1 [Example A81, 6-((((2S,3R)-3-Methyl-1-(5-methyl-2-(2H-1,2,3-triazol-2-yl)benzoyl)piperidin-2-yl)methyl)amino)picolinonitrile]
44% | Cc1ccc(-n2nccn2)c(C(=O)N2CCC[C@@H](C)[C@H]2CNc2nnc(C(F)(F)F)s2)n1 [Example A191, ((2S,3R)-3-Methyl-2-(((5-(trifluoromethyl)-1,3,4-thiadiazol-2-yl)amino)methyl)piperidin-1-yl)(6-methyl-3-(2H-1,2,3-triazol-2-yl)pyridin-2-yl)methanone]
99% | Cc1ccc(-c2cncn2C)c(C(=O)N2CCC[C@@H](C)[C@H]2CNc2ccc(C(F)(F)F)cn2)c1 [Example A26, ((2S,3R)-3-Methyl-2-(((5-(trifluoromethyl)pyridin-2-yl)amino)methyl)piperidin-1-yl)(5-methyl-2-(1-methyl-1H-imidazol-5-yl)phenyl)methanone]
72% | Cc1ccc(-n2ncc(C)n2)c(C(=O)N2CCC[C@@H](C)[C@H]2CNc2nc3cc(F)ccc3o2)c1 [Example A141, ((2S,3R)-2-(((5-Fluorobenzo[d]oxazol-2-yl)amino)methyl)-3-methylpiperidin-1-yl)(5-methyl-2-(4-methyl-2H-1,2,3-triazol-2-yl)phenyl)methanone]
76% | Cc1ccc(-n2nccn2)c(C(=O)N2CCC[C@@H](C)[C@H]2CNc2ncc(F)cc2F)c1 [Example A172, ((2S,3R)-2-(((3,5-Difluoropyridin-2-yl)amino)methyl)-3-methylpiperidin-1-yl)(5-methyl-2-(2H-1,2,3-triazol-2-yl)phenyl)methanone]
96% | COc1ncc(-c2ccc(C)cc2C(=O)N2CCC[C@@H](C)[C@H]2CNc2nc3cc(Cl)ccc3o2)cn1 [Example A39, ((2S,3R)-2-(((5-Chlorobenzo[d]oxazol-2-yl)amino)methyl)-3-methylpiperidin-1-yl) (2-(2-methoxypyrimidin-5-yl)-5-methylphenyl)methanone]
65% | Cc1cccc(C(=O)N2CCC[C@@H](C)[C@H]2CNc2ncc(C(F)(F)F)cn2)c1-n1nccn1 [Example A267, ((2S,3R)-3-Methyl-2-(((5-(trifluoromethyl)pyrimidin-2-yl)amino)methyl)piperidin-1-yl)(3-methyl-2-(2H-1,2,3-triazol-2-yl)phenyl)methanone]
67% | Cc1ccc(-n2nccn2)c(C(=O)N2CCC[C@@H](C)[C@H]2CNc2ncc3ccc(C)cc3n2)c1 [Example A215, ((2S,3R)-3-Methyl-2-(((7-methylquinazolin-2-yl)amino)methyl)piperidin-1-yl)(5-methyl-2-(2H-1,2,3-triazol-2-yl)phenyl)methanone]
93% | Cc1ccc(-c2c(C)noc2C)c(C(=O)N2CCC[C@@H](C)[C@H]2CNc2ccc(C(F)(F)F)cn2)c1 [Example A7, (2-(3,5-Dimethylisoxazol-4-yl)-5-methylphenyl)((2S,3R)-3-methyl-2-(((5-(trifluoromethyl)pyridin-2-yl)amino)methyl)piperidin-1-yl)methanone]
52% | C[C@@H]1CCCN(C(=O)c2cccc(F)c2-n2nccn2)[C@@H]1CNc1ncc(C(F)(F)F)cn1 [Example A256, (3-Fluoro-2-(2H-1,2,3-triazol-2-yl)phenyl)((2S,3R)-3-methyl-2-(((5-(trifluoromethyl)pyrimidin-2-yl)amino)methyl)piperidin-1-yl)methanone]
